Assay results as given in US9334246B2, “Substituted triazines for malaria treatment and chemoprophylaxis” (The United States of America, as represented by the …, priority 2013, dated 2016).

Tests used:
Type in all cases: cell-based, Plasmodium falciparum
P. falciparum C235 = assay: Malaria SYBR Green Fluorescence Assay, C235 strain; conditions: for C235: SYBR Green Assay
P. falciparum W2 = assay: Malaria SYBR Green Fluorescence Assay, W2 strain; conditions: for W2: SYBR Green Assay
P. falciparum D6 = assay: Malaria SYBR Green Fluorescence Assay, D6 strain; conditions: for D6: SYBR Green Assay

C235 (SYBR Green Assay IC50) (P. falciparum C235) | W2 (SYBR Green Assay IC50) (P. falciparum W2) | D6 (SYBR Green Assay IC50) (P. falciparum D6) | SMILES | C235 (P. falciparum C235) | W2 (P. falciparum W2) | D6 (P. falciparum D6)
 |  |  | Cc1ccc(-c2ccccc2-c2nc(NCc3ccncc3)nc(C(Cl)(Cl)Cl)n2)cc1 [Cmpd 299] | 311 ng/mL | 148 ng/mL | 195 ng/mL
 |  |  | OCCN1CCN(c2nc(Nc3ccc(OC(F)(F)F)cc3)nc(C(Cl)(Cl)Cl)n2)CC1 [Cmpd 302] | 299 ng/mL | 107 ng/mL | 166 ng/mL
 |  |  | NC1(CNc2nc(Nc3ccc(OC(F)(F)F)cc3)nc(C(Cl)(Cl)Cl)n2)CCOCC1 [Cmpd 303] | 65 ng/mL | 61 ng/mL | 43 ng/mL
 |  |  | OCCN1CCN(c2nc(-c3ccc(Cl)c(Cl)c3)nc(C(Cl)(Cl)Cl)n2)CC1 [Cmpd 304] | 201 ng/mL | 41 ng/mL | 80 ng/mL
 |  |  | OCCN1CCN(c2nc(-c3ccc4ccccc4c3)nc(C(Cl)(Cl)Cl)n2)CC1 [Cmpd 305] | 68 ng/mL | 23 ng/mL | 35 ng/mL
 |  |  | OCCN1CCN(c2nc(-c3ccc(-c4ccccc4)cc3)nc(C(Cl)(Cl)Cl)n2)CC1 [Cmpd 308] | 126 ng/mL | 24 ng/mL | 52 ng/mL
 |  |  | CSc1ccc(-c2nc(N3CCN(CCO)CC3)nc(C(Cl)(Cl)Cl)n2)cc1 [Cmpd 309] | 438 ng/mL | 122 ng/mL | 188 ng/mL
 |  |  | NC1(CNc2nc(-c3ccc(C(Cl)(Cl)Cl)cc3)nc(C(Cl)(Cl)Cl)n2)CCOCC1 [Cmpd 311] | 169 ng/mL | 47 ng/mL | 81 ng/mL
 |  |  | COc1ccc(-c2nc(NCC3(N)CCOCC3)nc(C(Cl)(Cl)Cl)n2)cc1OC [Cmpd 319] | 34 ng/mL | 10 ng/mL | 16 ng/mL
 |  |  | CSc1ccc(-c2nc(NC3CC(C)(C)NC(C)(C)C3)nc(C(Cl)(Cl)Cl)n2)cc1 [Cmpd 323] | 51 ng/mL | 17 ng/mL | 20 ng/mL
 |  |  | CC1(C)CC(Nc2nc(-c3ccc(C(Cl)(Cl)Cl)cc3)nc(C(Cl)(Cl)Cl)n2)CC(C)(C)N1 [Cmpd 325] | 269 ng/mL | 82 ng/mL | 123 ng/mL
 |  |  | NC1(CNc2nc(-c3ccc(Cl)cc3)nc(C(Cl)(Cl)Cl)n2)CCOCC1 [Cmpd 333] | 40 ng/mL | 15 ng/mL | 26 ng/mL
 |  |  | Clc1cccc(-c2nc(NCCN3CCCC3)nc(C(Cl)(Cl)Cl)n2)c1 [Cmpd 334] | 15 ng/mL | 2 ng/mL | 9 ng/mL
 |  |  | CCN1CCC(CNc2nc(-c3cccc(Cl)c3)nc(C(Cl)(Cl)Cl)n2)CC1 [Cmpd 339] | 41 ng/mL | 14 ng/mL | 34 ng/mL
 |  |  | COc1ccc(Nc2nc(NCCC3CCCN3C)nc(C(Cl)(Cl)Cl)n2)cn1 (stereo not drawn) [Cmpd 341] | 10 ng/mL | 5 ng/mL | 7 ng/mL
 |  |  | CCN(CC)CCNc1nc(Nc2ccc(OC)nc2)nc(C(Cl)(Cl)Cl)n1 [Cmpd 342] | 398 ng/mL | 149 ng/mL | 335 ng/mL
 |  |  | CCN1CCCC(Nc2nc(Nc3ccc(OC)nc3)nc(C(Cl)(Cl)Cl)n2)C1 (stereo not drawn) [Cmpd 344] | 98 ng/mL | 34 ng/mL | 80 ng/mL
 |  |  | COc1ccc(Nc2nc(N3CCN(C)CC3)nc(C(Cl)(Cl)Cl)n2)cn1 [Cmpd 345] | 1100 ng/mL | 199 ng/mL | 267 ng/mL
 |  |  | COc1ncccc1Nc1nc(NCCC2CCCN2C)nc(C(Cl)(Cl)Cl)n1 (stereo not drawn) [Cmpd 346] | 116 ng/mL | 52 ng/mL | 62 ng/mL

C235 (SYBR Green Assay IC50) (P. falciparum C235) | W2 (SYBR Green Assay IC50) (P. falciparum W2) | D6 (SYBR Green Assay IC50) (P. falciparum D6) | SMILES | C235 (P. falciparum C235) | W2 (P. falciparum W2) | D6 (P. falciparum D6)
 |  |  | COc1ccc(Nc2nc(NC3CCN(C)CC3)nc(C(Cl)(Cl)Cl)n2)cn1 [Cmpd 349] | 296 ng/mL | 129 ng/mL | 124 ng/mL
 |  |  | COc1ncccc1Nc1nc(NCCN2CCCC2)nc(C(Cl)(Cl)Cl)n1 [Cmpd 350] | 900 ng/mL | 467 ng/mL | 560 ng/mL
211 ng/mL | 80 ng/mL | 101 ng/mL | COc1ncccc1Nc1nc(N2CCN(C)CC2)nc(C(Cl)(Cl)Cl)n1 [Cmpd 353] |  |  | 
95 ng/mL | 51 ng/mL | 45 ng/mL | CCC(N)(CC)CNc1nc(-c2ccc(F)cc2)nc(C(Cl)(Cl)Cl)n1 [Cmpd 359] |  |  | 
98 ng/mL | 59 ng/mL | 50 ng/mL | COc1ncccc1Nc1nc(N2CCCNCC2)nc(C(Cl)(Cl)Cl)n1 [Cmpd 378] |  |  | 
159 ng/mL | 92 ng/mL | 66 ng/mL | COc1ncccc1Nc1nc(N2CCCN(C)CC2)nc(C(Cl)(Cl)Cl)n1 [Cmpd 379] |  |  | 
59 ng/mL | 29 ng/mL | 25 ng/mL | CN1CCCN(c2nc(-c3ccc(F)cc3)nc(C(Cl)(Cl)Cl)n2)CC1 [Cmpd 384] |  |  | 
57 ng/mL | 39 ng/mL | 28 ng/mL | CN1CCC(Nc2nc(-c3ccc(F)cc3)nc(C(Cl)(Cl)Cl)n2)CC1 [Cmpd 385] |  |  | 
153 ng/mL | 98 ng/mL | 132 ng/mL | CCC(N)(CC)CNc1nc(-c2ccc(Cl)c(Cl)c2)nc(C(Cl)(Cl)Cl)n1 [Cmpd 388] |  |  | 
45 ng/mL | 13 ng/mL | 30 ng/mL | CC(C)(N)CNc1nc(-c2ccc(F)cc2)nc(C(Cl)(Cl)Cl)n1 [Cmpd 389] |  |  | 
567 ng/mL | 143 ng/mL | 495 ng/mL | CN1CCN(c2nc(-c3ccc(F)cc3)nc(C(Cl)(Cl)Cl)n2)CC1 [Cmpd 390] |  |  | 
46 ng/mL | 19 ng/mL | 43 ng/mL | CC1(C)CC(Nc2nc(-c3ccc(F)cc3)nc(C(Cl)(Cl)Cl)n2)CC(C)(C)N1 [Cmpd 391] |  |  | 
117 ng/mL | 49 ng/mL | 86 ng/mL | COc1ccc(-c2nc(NCC(C)(C)N)nc(C(Cl)(Cl)Cl)n2)cc1OC [Cmpd 396] |  |  | 
203 ng/mL | 78 ng/mL | 134 ng/mL | COc1ccc(Nc2nc(NCC(C)(C)N)nc(C(Cl)(Cl)Cl)n2)cn1 [Cmpd 403] |  |  | 
45 ng/mL | 16 ng/mL | 27 ng/mL | ClC(Cl)(Cl)c1nc(NCCN2CCCC2)nc(-c2ccccc2)n1 [Cmpd 405] |  |  | 
89 ng/mL | 35 ng/mL | 77 ng/mL | ClC(Cl)(Cl)c1nc(NCCCN2CCCC2)nc(-c2ccccc2)n1 [Cmpd 406] |  |  | 
189 ng/mL | 84 ng/mL | 190 ng/mL | ClC(Cl)(Cl)c1nc(-c2ccccc2)nc(N2CCCNCC2)n1 [Cmpd 408] |  |  | 
119 ng/mL | 43 ng/mL | 118 ng/mL | CN1CCCN(c2nc(-c3ccccc3)nc(C(Cl)(Cl)Cl)n2)CC1 [Cmpd 409] |  |  | 
